We go through 5 compounds from ChEMBL document CHEMBL1201862, “PubChem BioAssay data set” (2004).

The structures appear in SMILES notation.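 Briefly, cells in 96-well plates were exposed to five compound concentrations for 48 h, and endpoints were estimated by linear interpolation. The concentration for 50% growth inhibition is given as GI50.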 The source made the active and inactive calls. Rule as the data show it: active = GI50 up to about 1.1 µM and inactive = higher.

Some test systems named below: CCRF-CEM; K562; SNB-75; SR; MOLT-4; NCI-H522; SF-539; OVCAR-3; HCT-15; COLO 205; IGROV-1; MDA-N; SK-OV-3; SF-295; KM12; NCI-H226; DU-145; NCI-H23; SF-268; A498.
What all share (test): NCI-60 cell line screen, 48 h

Take `COC(=O)[C@@H]1C=C[C@H](OC2OC(COC(C)=O)C(OC(C)=O)C(OC(C)=O)C2OC(C)=O)n2c(=O)c3ccccc3c(=O)n21` (stereo not given in full): the GI50 with CCRF-CEM is 4.14 µM (inactive); with K562 it was 5.66 µM (inactive); in the assay with SNB-75, 6.71 µM (inactive); in the assay on SR it was 4.82 µM (inactive); in the assay with MOLT-4 it was 11.8 µM (inactive); in the assay with NCI-H522, 1.68 µM (inactive). In addition, the GI50 is 15.7 µM (inactive) in the assay with SF-539; 10.4 µM (inactive) with OVCAR-3; 10.8 µM with HCT-15; 8.65 µM (inactive) in the assay on COLO 205; 18.2 µM (inactive) in the assay on IGROV-1; > 10 µM (inactive) with MDA-N. The GI50 in the assay on SK-OV-3 is 14.6 µM (inactive); in the assay on SF-295 it was 18.8 µM (inactive); in the assay with KM12, 10.7 µM (inactive); in the assay on NCI-H226 it was 19.7 µM (inactive); with DU-145 it was 16.1 µM (inactive); with NCI-H23 it was 18.6 µM (inactive). In addition, the figures for the GI50 in the assay with SF-268 and with A498 were > 10 µM (inactive) and 12.2 µM (inactive), respectively.

In the case of `NC(=O)NOCC1NC(=O)NC1=O` (stereo not given), the GI50 in the assay on CCRF-CEM is 4.16 µM (inactive); with K562, > 100 µM (inactive); with SNB-75, > 100 µM (inactive); with SR it was > 100 µM (inactive); with MOLT-4, > 100 µM (inactive); in the assay with NCI-H522, > 100 µM (inactive). Also, the GI50 with SF-539 is > 100 µM (inactive); in the assay with OVCAR-3 it was > 100 µM (inactive); with HCT-15 it was over 100 µM; in the assay on COLO 205, > 100 µM (inactive); in the assay with IGROV-1, > 100 µM (inactive); with MDA-N it was > 100 µM (inactive). The GI50 with SK-OV-3, with SF-295, in the assay with KM12, with NCI-H226, with DU-145 and in the assay with NCI-H23 was > 100 µM (inactive) throughout. The GI50 in the assay with SF-268 and in the assay on A498 was > 100 µM (inactive) each time.

Turning to `O=c1c2cc([N+](=O)[O-])ccc2n2n1Cc1ccccc1C2`, the GI50 in the assay on CCRF-CEM is > 100 µM (inactive); in the assay on K562 it was > 100 µM (inactive); with SNB-75, > 100 µM (inactive); with SR it was 87.3 µM (inactive); with MOLT-4 it was 35.8 µM (inactive); with NCI-H522, 64.6 µM (inactive). Also, the GI50 in the assay on SF-539 is > 100 µM (inactive); in the assay on OVCAR-3, > 100 µM (inactive); with HCT-15, over 100 µM; with COLO 205, > 100 µM (inactive); with IGROV-1 it was > 100 µM (inactive); with MDA-N it was > 100 µM (inactive). Moreover, the GI50 in the assay on SK-OV-3, in the assay on SF-295, in the assay on KM12, in the assay with NCI-H226, with DU-145 and with NCI-H23 was > 100 µM (inactive) in each case. The GI50 is > 100 µM (inactive) in the assay with SF-268 and 63.8 µM (inactive) in the assay on A498.

As for `O=C1c2ccccc2-c2c1c1ccccc1c(=O)n2Cc1ccco1`, the GI50 with CCRF-CEM was > 100 µM (inactive); in the assay with K562 it was > 100 µM (inactive); with SNB-75, 48.6 µM (inactive); in the assay with SR, > 100 µM (inactive); in the assay with MOLT-4, > 100 µM (inactive); in the assay with NCI-H522, > 100 µM (inactive). Besides, the GI50 is 39.6 µM (inactive) in the assay with SF-539; > 100 µM (inactive) in the assay on OVCAR-3; over 100 µM with HCT-15; > 100 µM (inactive) in the assay with COLO 205; > 100 µM (inactive) in the assay on IGROV-1; > 100 µM (inactive) with MDA-N. Moreover, the GI50 with SK-OV-3, in the assay on SF-295, with KM12, in the assay on NCI-H226, with DU-145 and with NCI-H23 was > 100 µM (inactive) throughout. Besides, the GI50 in the assay on SF-268 and in the assay on A498 was > 100 µM (inactive) each time.

With `CO[C@H]1[C@@H](O)[C@@H](O)O[C@@H](O[C@H]2CC[C@@]3(C)[C@H](CC[C@@H]4[C@@H]3[C@H](O)C[C@]3(C)[C@@H](C5=CC(=O)OC5)CC[C@]43O)C2)[C@@H]1O`, the GI50 with CCRF-CEM is 0.23 µM (active); with K562, 0.175 µM (active); in the assay on SNB-75 it was 0.354 µM (active); in the assay on SR it was 0.21 µM (active); in the assay with MOLT-4, 0.0304 µM (active); with NCI-H522, 0.0239 µM (active). Besides, the GI50 in the assay on SF-539 was 0.08 µM (active); with OVCAR-3, 0.112 µM (active); in the assay on HCT-15, 0.281 µM; in the assay on COLO 205, 0.441 µM (active); in the assay on IGROV-1, 0.301 µM (active); with MDA-N, 0.243 µM (active). Moreover, the GI50 in the assay on SK-OV-3 was 0.248 µM (active); with SF-295 it was 0.141 µM (active); with KM12, 0.698 µM (active); in the assay on NCI-H226 it was 0.69 µM (active); with DU-145, 0.0946 µM (active); in the assay on NCI-H23, 0.113 µM (active). Moreover, the GI50 in the assay with SF-268 is 0.11 µM (active); in the assay on A498, 0.184 µM (active).
